Laboratory results published in patent publication US20220251124A1, “3,5-BIS(PHENYL)-1H-HETEROARYL DERIVATIVES AS MEDICAMENTS” (INSTITUTE OF BIOTECHNOLOGY CAS, V.V.I., priority 2019, published 2022).
Like-named read-outs stand apart in the source and are kept apart here.

Assays:
Assay type in all cases: cell-based
MCF7 cells = experiment: crystal violet assay, cellular viability (cytostatic and cytotoxic effect), 48 hrs; conditions: Homo sapiens
Procedure: (§1) Compound 1 and a comparative compound deferasirox (DFX) were tested in their efficacy to kill/suppress proliferation of malignant breast cancer MCF7 cells representing estrogen-dependent type of breast cancer. Briefly, 10.000 cells per well were seeded in a 96-well plate on one day and the next day the tested compounds were added and incubated with the cells for 48 hrs. The cells were then fixed with 4% paraformaldehyde, stained with 0.05% crystal violet, washed with PBS, and solubilized in 1% SDS. The absorbance of the plate at 595 nm was then measured, quantifying the number of viable cells.

MDA-MB-231 cells = experiment: crystal violet assay, cellular viability, 48 hrs; conditions: for IC50: MDA-MB-231, crystal violet
Procedure: as §1
Compound 1 and the comparative compound deferasirox were tested in their efficacy to kill/suppress proliferation of malignant MDA-MB-231 cancer cells representing hard to treat triple negative breast cancer. The procedure is identical to that in example 12.

BxPC3 [1] = experiment: crystal violet assay, cellular viability, 48 hrs; conditions: Homo sapiens, BXPC-3
Procedure: as §1
(§2) Compounds 1, 2 and the comparative compound deferasirox were tested in their efficacy to suppress proliferation/kill several malignant cell lines of breast, pancreatic and ovarian origin (MCF7, MDA-MB-231, BxPC3 and OVCAR3). The procedure is identical to that in example 12.

OVCAR3 = experiment: crystal violet assay, cellular viability, 48 hrs; conditions: Homo sapiens, OVCAR-3
Procedure: as §1, §2

T47D = experiment: crystal violet assay, cellular viability, 48 hrs; conditions: Homo sapiens, T47D (parental/control)
Procedure: [The source words this procedure for another cell line and reports this cell line under the same test.] as §1, §2

[2] = tested on: non-malignant fibroblasts (HFP1); experiment: crystal violet assay, cellular viability, 48 hrs; conditions: Fibroblast
Procedure: [The source words this procedure for another cell line and reports this cell line under the same test.] as §1, §2

[3] = tested on: tamoxifen resistant MCF7 (Tam5R); experiment: crystal violet assay, tamoxifen resistant cells; conditions: MCF7 Tam5R grown in the presence of 5 μM tamoxifen
Procedure: as §1
To test whether compound 1 is active against resistant cancer cells, we used tamoxifen-resistant MCF7, T47D. The IC50 values were again measured with the crystal violet assay performed as in example 12. We have documented that there is a significant difference in the ability of compound 1 to induce cytostatic and cytotoxic effects between the parental cells sensitive to tamoxifen and the resistant ones that grow even in the presence of tamoxifen (Table 11), yet the IC50 values are still in the nM range, making this compound very efficient.

MCF7 = experiment: annexin V/PI staining, cell death induction, 48 hrs
Procedure: (§3) This effect seems to be based mainly on the cytostatic effect of compound 1. To define the ability to kill cells, cell death-inducing potency (cytotoxic efficacy) of DFX and compound 1 have been tested via annexin V/PI staining commonly used as a measure of apoptotic/necrotic cell death. Briefly, cells were seeded in 12-well plate at 100,000 per well, incubated with the selected compounds for 48 hours, then floating cells were spun, adherent cells trypsinized and spun as well followed by the staining with AnnexinV-FITC and PI probes. Cells were then washed with PBS and measured via Fluorescence Activated Sorter.
Since compound 1 is an iron chelator, we have evaluated the effect of pre-loading compound 1 with iron at a 2:1 ratio and then applying it to the cells, followed by measurement of cell death using the Annexin V/PI staining as in example 4.

BxPC3 [4] = experiment: as above; conditions: 5 μM
Procedure: as §3

OVCAR = experiment: as above
Procedure: as §3

non malignant cells MRC5 = experiment: as above
Procedure: as §3

non-malignant HFP1 cells = experiment: as above; conditions: for dead cells (AnnexinV/PI): 48 hrs, HFP1
Procedure: as §3

[5] = tested on: UPF16A leukemia cell line; experiment: alamarBlue Cell Viability Reagent, 48 hrs
Procedure: (§4) Compound 1 and a comparative compound deferasirox (DFX) were tested in their efficacy to kill/suppress proliferation of several leukemia cells. Briefly, 10.000 cells per well were seeded in a 96-well plate on one day and the next day the tested compounds were added and incubated with the cells for 48 hrs. Cellular viability was determined as the ability to reduce the probe alamarBlue™ Cell Viability Reagent.

UPF1H leukemia cell line = experiment: alamarBlue Cell Viability Reagent, 48 hrs
Procedure: as §4

UPF4D leukemia cell line = experiment: alamarBlue Cell Viability Reagent, 48 hrs
Procedure: as §4

UPF9T leukemia cell line = experiment: alamarBlue Cell Viability Reagent, 48 hrs
Procedure: as §4

leukemia cells = experiment: alamarBlue viability, leukemia cells overall
Procedure: as §4

## O=C(NCCCCCCCCCC[P+](c1ccccc1)(c1ccccc1)c1ccccc1)c1ccc(-n2nc(-c3ccccc3O)nc2-c2ccccc2O)cc1 [Compound 1, (10-(4-(3,5-bis(2-hydroxyphenyl)-1H-1,2,4-triazol-1-yl)benzamido)decyl) triphenylphosphonium Chloride]
MCF7 cells; 0.030 μM, MCF7, read-out: viable cells compared to non-treated controls
  viability at 0.03 µM: 33.7%
MCF7 cells; 0.100 μM, MCF7, read-out: viable cells compared to non-treated controls
  viability at 0.1 µM: 23.6%
MCF7 cells; 0.300 μM, MCF7, read-out: viable cells compared to non-treated controls
  viability at 0.3 µM: 14.8%
MCF7 cells; 1 μM, MCF7, read-out: viable cells compared to non-treated controls
  viability at 1 µM: 7.28%
MCF7 cells; 3 μM, MCF7, read-out: viable cells compared to non-treated controls
  viability at 3 µM: 5.2%
MCF7 cells; 10 μM, MCF7, read-out: viable cells compared to non-treated controls
  viability at 10 µM: 2.31%
MCF7 cells; 30 μM, MCF7, read-out: viable cells compared to non-treated controls
  viability at 30 µM: 0.69%
MCF7 cells; MCF7 (parental/control), crystal violet, read-out: IC50
  IC50: 8 nM
MCF7 cells; MCF7, crystal violet, read-out: IC50 (suppression of proliferation to 50%)
  IC50: 8 nM
MDA-MB-231 cells; Homo sapiens, 0.030 μM, MDA-MB-231, read-out: viable cells compared to non-treated controls
  viability at 0.03 µM: 71.1%
MDA-MB-231 cells; Homo sapiens, 0.100 μM, MDA-MB-231, read-out: viable cells compared to non-treated controls
  viability at 0.1 µM: 52.5%
MDA-MB-231 cells; Homo sapiens, 0.300 μM, MDA-MB-231, read-out: viable cells compared to non-treated controls
  viability at 0.3 µM: 37.4%
MDA-MB-231 cells; Homo sapiens, 1 μM, MDA-MB-231, read-out: viable cells compared to non-treated controls
  viability at 1 µM: 27.8%
MDA-MB-231 cells; Homo sapiens, 3 μM, MDA-MB-231, read-out: viable cells compared to non-treated controls
  viability at 3 µM: 18.2%
MDA-MB-231 cells; Homo sapiens, 10 μM, MDA-MB-231, read-out: viable cells compared to non-treated controls
  viability at 10 µM: 0.29%
MDA-MB-231 cells; Homo sapiens, 30 μM, MDA-MB-231, read-out: viable cells compared to non-treated controls
  viability at 30 µM: 0.51%
MDA-MB-231 cells; Homo sapiens, MDA-MB-231, 48 h
  IC50: 131 nM
MDA-MB-231 cells; Homo sapiens, MDA-MB-231, 48 h, text
  IC50: 131 nM
MDA-MB-231 cells
  IC50: 130 nM
BxPC3 [1]
  IC50: 150 nM
OVCAR3
  IC50: 154 nM
T47D
  IC50: 31 nM
[2]
  IC50: 532 nM
[3]
  IC50: 38 nM
MCF7; 5 μM, +Fe^+3 (pre-loaded with iron at a 2:1 ratio)
  dead cells (AnnexinV/PI): 24.3 (1.1) %
MCF7; 5 μM, alone
  dead cells (AnnexinV/PI): 38.5 (8.8) %
MCF7; 10 μM, +Fe^+3 (pre-loaded with iron at a 2:1 ratio)
  dead cells (AnnexinV/PI): 25.7 (2.5) %
MCF7; 10 μM, alone
  dead cells (AnnexinV/PI): 46.6 (7.8) %
BxPC3 [4]
  dead cells (AnnexinV/PI): 37.8 (16.1) %
OVCAR; 1 μM
  dead cells (AnnexinV/PI): 31.6 (10.3) %
OVCAR; 2 μM
  dead cells (AnnexinV/PI): 39.7 (9.8) %
OVCAR; 5 μM
  dead cells (AnnexinV/PI): 52.2 (17.5) %
Non malignant cells MRC5; 1 μM
  dead cells (AnnexinV/PI): 14.5 (1.7) %
Non malignant cells MRC5; 2 μM
  dead cells (AnnexinV/PI): 19.6 (1.9) %
Non malignant cells MRC5; 5 μM
  dead cells (AnnexinV/PI): 15.0 (2.0) %
non-malignant HFP1 cells; 1 μM
  dead cells (AnnexinV/PI): 12.3 (0.9) %
non-malignant HFP1 cells; 2 μM
  dead cells (AnnexinV/PI): 13.6 (1.4) %
non-malignant HFP1 cells; 5 μM
  dead cells (AnnexinV/PI): 23.3 (1.1) %
non-malignant HFP1 cells; non-malignant HFP1 cells
  concentrations at which toxic effect could be detected: higher than 5 μM
[5]; 0.030 μM, 48 hrs, UPF16A, read-out: viable cells compared to non-treated controls
  viability at 0.03 µM: 75.7%
[5]; 0.100 μM, 48 hrs, UPF16A, read-out: viable cells compared to non-treated controls
  viability at 0.1 µM: 50.2%
[5]; 0.300 μM, 48 hrs, UPF16A, read-out: viable cells compared to non-treated controls
  viability at 0.3 µM: 30.8%
[5]; 3 μM, 48 hrs, UPF16A, read-out: viable cells compared to non-treated controls
  viability at 3 µM: 4%
[5]; 10 μM, 48 hrs, UPF16A, read-out: viable cells compared to non-treated controls
  viability at 10 µM: 0.31%
[5]; 48 h
  IC50: 110 nM
UPF1H leukemia cell line; 0.030 μM, 48 hrs, read-out: viable cells compared to non-treated controls
  viability at 0.03 µM: 94.1%
UPF1H leukemia cell line; 0.100 μM, 48 hrs, read-out: viable cells compared to non-treated controls
  viability at 0.1 µM: 81.9%
UPF1H leukemia cell line; 0.300 μM, 48 hrs, read-out: viable cells compared to non-treated controls
  viability at 0.3 µM: 31.1%
UPF1H leukemia cell line; 3 μM, 48 hrs, read-out: viable cells compared to non-treated controls
  viability at 3 µM: 5.8%
UPF1H leukemia cell line; 10 μM, 48 hrs, read-out: viable cells compared to non-treated controls
  viability at 10 µM: 0.04%
UPF1H leukemia cell line; 48 h
  IC50: 230 nM
UPF4D leukemia cell line; 0.030 μM, 48 hrs, UPF4D, read-out: viable cells compared to non-treated controls
  viability at 0.03 µM: 90.1%
UPF4D leukemia cell line; 0.100 μM, 48 hrs, UPF4D, read-out: viable cells compared to non-treated controls
  viability at 0.1 µM: 49.8%
UPF4D leukemia cell line; 0.300 μM, 48 hrs, UPF4D, read-out: viable cells compared to non-treated controls
  viability at 0.3 µM: 0.56%
UPF4D leukemia cell line; 3 μM, 48 hrs, UPF4D, read-out: viable cells compared to non-treated controls
  viability at 3 µM: 0.74%
UPF4D leukemia cell line; 10 μM, 48 hrs, UPF4D, read-out: viable cells compared to non-treated controls
  viability at 10 µM: 0.1%
UPF4D leukemia cell line; 48 h
  IC50: 90 nM
UPF9T leukemia cell line; 0.030 μM, 48 hrs, UPF9T, read-out: viable cells compared to non-treated controls
  viability at 0.03 µM: 44.8%
UPF9T leukemia cell line; 0.100 μM, 48 hrs, UPF9T, read-out: viable cells compared to non-treated controls
  viability at 0.1 µM: 10.5%
UPF9T leukemia cell line; 0.300 μM, 48 hrs, UPF9T, read-out: viable cells compared to non-treated controls
  viability at 0.3 µM: 2%
UPF9T leukemia cell line; 3 μM, 48 hrs, UPF9T, read-out: viable cells compared to non-treated controls
  viability at 3 µM: 6.7%
UPF9T leukemia cell line; 10 μM, 48 hrs, UPF9T, read-out: viable cells compared to non-treated controls
  viability at 10 µM: 6.9%
UPF9T leukemia cell line; 48 h
  IC50: 20 nM
Leukemia cells; 48 h, read-out: IC50 (suppression of proliferation to 50%)
  IC50: 20 to 200 nM
Leukemia cells; IC50 versus deferasirox, leukemia cells
  same effect at a concentration lower than deferasirox: 40-4000 fold
Leukemia cells; as seen in previous tables
  efficacy against leukemia cell lines: 20 to 200 nM
